Measured values from ChEMBL document CHEMBL1201862, “PubChem BioAssay data set” (2004).
Each block holds one compound with its values, some of them ahead of it. Activity calls are given as the source filed them.

Assays:
[1] = target: T1, Heat shock 70 kDa protein 1A (Homo sapiens, UniProt P0DMV8); assay: Hsp70 inhibitors, biochemical, TR-FRET (AID 786)
[2] = target: T1, Heat shock 70 kDa protein 1A; assay: Hsp70 inhibitors, probe displacement, primary screen, biochemical, fluorescence polarization (AID 583)
[3] = target: Mothers against decapentaplegic homolog 3 (Homo sapiens, UniProt P84022); assay: Smad3 binding inhibitors, lysate ELISA, dose response, cell lysate, secondary confirmation, chemiluminescent ELISA, HEK293 lysate (AID 1058); type: functional
Chain of Mothers against decapentaplegic homolog 3 (P84022 whole entry): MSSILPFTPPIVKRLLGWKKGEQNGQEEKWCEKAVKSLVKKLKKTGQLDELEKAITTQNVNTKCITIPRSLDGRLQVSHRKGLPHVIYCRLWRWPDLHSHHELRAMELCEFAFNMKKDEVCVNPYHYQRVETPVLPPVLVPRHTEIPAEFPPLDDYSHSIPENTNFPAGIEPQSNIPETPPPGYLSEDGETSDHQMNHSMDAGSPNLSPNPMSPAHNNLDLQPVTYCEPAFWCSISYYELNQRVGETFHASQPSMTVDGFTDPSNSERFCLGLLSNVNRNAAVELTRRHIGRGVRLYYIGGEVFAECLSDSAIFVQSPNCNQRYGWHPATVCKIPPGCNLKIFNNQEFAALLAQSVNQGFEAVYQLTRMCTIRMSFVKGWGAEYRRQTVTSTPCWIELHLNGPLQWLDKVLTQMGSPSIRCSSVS

HEK293 = assay: Fluorescence-based counterscreen for potentiators or agonists of NPY-Y2: cell-based high-throughput dose response assay to identify inhibitors of cyclic nucleotide gated ion channel (CNGC) activity. In this assay, the parental HEK293 cell line transfected with a cyclic-nucleotide gated ion channel (CNGC)-based cAMP sensor is used to measure inhibition of isoproterenol-induced CNGC activity by test compound.; type: functional; details: Homo sapiens;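 further: stimulus is 1 µM isoproterenol at EC100 plus PDE inhibitor Ro 20-1724 at 25 µM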
[4] = target: Neuropeptide Y receptor type 2 (Homo sapiens, UniProt P49146); assay: Fluorescence-based cell-based high-throughput dose response assay for agonists of NPY-Y2. [Related pubchem assays: 1703 (Screening assay (CNGC inhibitors).), 1359 (Screening assay (NPY-Y2 potentiators or agonists).), 1304 (Screening assay (NPY-Y1 potentiators or agonists).), 1710 (Screening assay (NPY-Y2 agonists).), 1791 (Summary AID.)]; type: functional
Chain of Neuropeptide Y receptor type 2 (P49146 whole entry): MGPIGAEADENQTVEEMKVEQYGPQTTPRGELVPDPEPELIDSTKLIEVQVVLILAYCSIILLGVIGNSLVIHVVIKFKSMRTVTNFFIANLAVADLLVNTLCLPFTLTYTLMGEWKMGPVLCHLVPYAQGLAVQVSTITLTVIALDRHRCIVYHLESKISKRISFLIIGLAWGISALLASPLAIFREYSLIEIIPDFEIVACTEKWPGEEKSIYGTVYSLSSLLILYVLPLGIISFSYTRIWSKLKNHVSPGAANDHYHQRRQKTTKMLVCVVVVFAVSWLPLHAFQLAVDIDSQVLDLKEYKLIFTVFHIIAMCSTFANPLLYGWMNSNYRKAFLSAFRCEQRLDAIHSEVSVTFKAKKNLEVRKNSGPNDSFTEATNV

[5] = inhibitors of intracellular T. cruzi replication, confirmation, NIH3T3 host cells, beta-gal luminescence (AID 2044); type: functional, cell-based;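 further: intracellular parasites grown in NIH/3T3 mouse fibroblasts as host cells; luminescent beta-galactosidase reporter signal from transgenic T. cruzi replicating inside host cells; inhibitors lower the luminescence signal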
[6] = target: Neuropeptide Y receptor type 1 (Homo sapiens, UniProt P25929); assay: Fluorescence-based counterscreen for agonists of NPY-Y2: cell-based high-throughput dose response assay for agonists of NPY-Y1.; type: functional
Chain of Neuropeptide Y receptor type 1 (P25929 whole entry): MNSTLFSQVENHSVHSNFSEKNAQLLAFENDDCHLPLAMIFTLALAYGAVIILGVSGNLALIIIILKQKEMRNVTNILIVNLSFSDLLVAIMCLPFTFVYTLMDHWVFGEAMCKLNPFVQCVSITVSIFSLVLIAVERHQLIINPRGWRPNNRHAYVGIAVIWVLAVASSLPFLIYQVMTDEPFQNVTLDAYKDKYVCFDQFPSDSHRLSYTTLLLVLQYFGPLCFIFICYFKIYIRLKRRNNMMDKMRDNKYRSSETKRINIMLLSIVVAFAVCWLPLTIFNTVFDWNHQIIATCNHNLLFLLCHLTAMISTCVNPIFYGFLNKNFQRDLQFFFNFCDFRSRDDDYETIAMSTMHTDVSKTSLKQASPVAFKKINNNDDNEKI

[7] = cytotoxicity toward NIH3T3 fibroblasts, dose response, counter-screen, cell-based, ATP luminescence, mouse fibroblasts (AID 2010); type: functional;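 further: cells exposed to compound for about 90 hours before reading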
Aspartyl aminopeptidase = Aspartyl aminopeptidase (Plasmodium falciparum 3D7, UniProt Q8I2J3)
Chain of Aspartyl aminopeptidase (Q8I2J3 whole entry): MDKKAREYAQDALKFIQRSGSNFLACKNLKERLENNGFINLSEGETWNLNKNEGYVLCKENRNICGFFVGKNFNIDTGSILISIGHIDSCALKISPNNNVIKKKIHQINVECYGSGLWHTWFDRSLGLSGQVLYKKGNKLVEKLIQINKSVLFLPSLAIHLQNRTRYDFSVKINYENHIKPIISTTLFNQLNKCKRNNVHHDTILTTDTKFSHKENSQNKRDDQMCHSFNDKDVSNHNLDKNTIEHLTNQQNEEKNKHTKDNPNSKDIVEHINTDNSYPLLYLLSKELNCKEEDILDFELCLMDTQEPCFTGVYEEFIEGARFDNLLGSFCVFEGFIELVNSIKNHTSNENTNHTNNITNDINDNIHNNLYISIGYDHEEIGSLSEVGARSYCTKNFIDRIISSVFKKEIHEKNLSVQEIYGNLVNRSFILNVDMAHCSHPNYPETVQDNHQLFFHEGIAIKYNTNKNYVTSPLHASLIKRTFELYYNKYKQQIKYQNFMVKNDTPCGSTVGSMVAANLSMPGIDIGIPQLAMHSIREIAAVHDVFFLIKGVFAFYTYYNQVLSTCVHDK

Procathepsin L = Procathepsin L (Homo sapiens, UniProt P07711)
Chain of Procathepsin L (P07711 whole entry): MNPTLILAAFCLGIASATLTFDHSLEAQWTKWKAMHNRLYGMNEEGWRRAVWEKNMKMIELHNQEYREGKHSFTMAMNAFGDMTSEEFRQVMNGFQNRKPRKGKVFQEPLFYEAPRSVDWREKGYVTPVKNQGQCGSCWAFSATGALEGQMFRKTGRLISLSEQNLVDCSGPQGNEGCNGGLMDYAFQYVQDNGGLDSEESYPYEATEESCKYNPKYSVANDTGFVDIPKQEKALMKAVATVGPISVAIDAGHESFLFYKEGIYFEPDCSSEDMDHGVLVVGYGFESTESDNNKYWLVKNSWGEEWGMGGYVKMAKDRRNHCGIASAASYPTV

Vasopressin V1a receptor = Vasopressin V1a receptor (Homo sapiens, UniProt P37288); assay: Counterscreen for Oxytocin Receptor (OXTR) agonists: Fluorescence-based cell-based high throughput dose response assay to identify agonists of the vasopressin 1 receptor (V1R). [Related pubchem assays: 2435 (Primary screen (OXTR agonists in singlicate)), 434991 (Counterscreen (V1R agonists in triplicate)), 2482 (Summary (OXTR agonists)) …; type: functional
Chain of Vasopressin V1a receptor (P37288 whole entry): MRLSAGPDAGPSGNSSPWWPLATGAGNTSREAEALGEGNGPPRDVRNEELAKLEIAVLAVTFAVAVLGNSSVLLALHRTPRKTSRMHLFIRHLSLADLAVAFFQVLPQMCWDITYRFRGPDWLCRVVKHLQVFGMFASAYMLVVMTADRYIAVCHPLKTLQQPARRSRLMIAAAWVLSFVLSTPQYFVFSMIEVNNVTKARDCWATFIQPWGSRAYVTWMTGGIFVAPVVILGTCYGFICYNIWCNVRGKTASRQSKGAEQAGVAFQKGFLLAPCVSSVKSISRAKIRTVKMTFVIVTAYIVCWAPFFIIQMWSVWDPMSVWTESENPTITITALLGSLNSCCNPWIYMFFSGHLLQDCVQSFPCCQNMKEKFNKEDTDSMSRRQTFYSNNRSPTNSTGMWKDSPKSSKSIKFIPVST

Oxytocin receptor = Oxytocin receptor (Homo sapiens, UniProt P30559); assay: Fluorescence-based cell-based high throughput dose response assay for agonists of the Oxytocin Receptor (OXTR). [Related pubchem assays: 2435 (Primary screen (OXTR agonists in singlicate)), 434991 (Counterscreen (V1R agonists in triplicate)), 2482 (Summary (OXTR agonists)), 434963 (Confirmation screen (OXTR agonists in triplicate))]; type: functional
Chain of Oxytocin receptor (P30559 whole entry): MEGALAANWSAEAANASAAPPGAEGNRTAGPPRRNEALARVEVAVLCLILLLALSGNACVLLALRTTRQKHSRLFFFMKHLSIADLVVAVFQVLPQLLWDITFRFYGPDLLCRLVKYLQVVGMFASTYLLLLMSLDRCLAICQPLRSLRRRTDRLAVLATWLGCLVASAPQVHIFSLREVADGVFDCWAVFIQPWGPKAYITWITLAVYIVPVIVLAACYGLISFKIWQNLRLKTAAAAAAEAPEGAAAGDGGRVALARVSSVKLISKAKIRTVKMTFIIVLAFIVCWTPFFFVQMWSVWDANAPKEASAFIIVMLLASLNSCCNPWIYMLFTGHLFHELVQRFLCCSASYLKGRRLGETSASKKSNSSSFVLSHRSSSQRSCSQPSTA

T1 sequence (P0DMV8 whole entry): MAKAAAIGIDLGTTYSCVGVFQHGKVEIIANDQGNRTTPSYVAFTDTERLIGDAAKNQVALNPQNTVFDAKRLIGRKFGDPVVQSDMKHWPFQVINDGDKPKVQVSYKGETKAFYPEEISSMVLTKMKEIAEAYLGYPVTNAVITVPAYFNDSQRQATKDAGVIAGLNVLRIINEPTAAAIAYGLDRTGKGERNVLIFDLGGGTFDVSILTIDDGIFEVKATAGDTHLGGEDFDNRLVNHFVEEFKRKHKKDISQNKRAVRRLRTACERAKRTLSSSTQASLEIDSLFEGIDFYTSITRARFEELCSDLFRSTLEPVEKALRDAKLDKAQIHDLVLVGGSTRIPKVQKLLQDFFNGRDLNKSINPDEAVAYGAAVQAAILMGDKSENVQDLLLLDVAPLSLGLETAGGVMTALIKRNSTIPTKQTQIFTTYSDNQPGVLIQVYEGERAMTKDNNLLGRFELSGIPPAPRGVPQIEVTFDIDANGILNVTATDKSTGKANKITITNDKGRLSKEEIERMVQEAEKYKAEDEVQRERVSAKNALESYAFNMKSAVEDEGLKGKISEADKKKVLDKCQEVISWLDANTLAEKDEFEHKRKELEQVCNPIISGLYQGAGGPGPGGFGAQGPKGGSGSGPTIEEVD

IC50 [1]: > 100 µM (not active)
IC50 [2]: > 100 µM (not active)
SMILES: CC(=O)Nc1cc2c(cc1C(C)=O)OCCO2

IC50 [3]: > 40 µM (not active)
SMILES: COc1cc(OC)c(C(c2cc3c(cc2O)OCO3)N2CCOCC2)c(OC)c1 (configuration not stated)

EC50 (Vasopressin V1a receptor): > 29.9 µM (not active)
EC50 (Oxytocin receptor): > 29.9 µM (not active)
SMILES: Cc1cc(-c2nnc(SCC(=O)Nc3ccccc3C(F)(F)F)o2)c(C)n1-c1ccccc1

The next lines start with the compound.

SMILES: Nc1c(-c2ccccc2)c(CSc2nc3ccccc3[nH]2)nn1-c1ccc(Cl)cc1
EC50 (HEK293): > 35.4 µM (not active)
EC50 [4]: 6.65 µM (active)
EC50 [5]: 595 nM (active)
EC50 [6]: 7.41 µM (active)
EC50 [7]: 12.2 µM (active)

SMILES: O=C(Nc1cccc([N+](=O)[O-])c1)Nn1cnnc1
IC50 (Aspartyl aminopeptidase): 930 nM (active)
IC50 (Procathepsin L): > 59.6 µM (not active)
